Active and inactive are the calls of the source. No cut-off for these calls is given here.
Key:
HL-60 [1] = experiment: Cytotoxicity against human HL60 cells after 72 hrs by MTT assay; format: functional, cell-based; conditions: HL-60, 72 h
[2] = Induction of F-actin (unknown origin) polymerization after 1 hr by spectrofluorometric analysis; set-up: species or system Homo sapiens
HL-60 [3] = experiment: Cytotoxicity against human HL60 cells after 24 hrs by trypan blue dye exclusion assay in presence of Z-VAD-FMK; format: functional, cell-based
HeLa S3 [4] = experiment: Cytotoxicity against human HeLaS3 cells after 48 hrs by trypan blue dye exclusion assay; format: functional, cell-based
HL-60 [5] = experiment: Induction of apoptosis in human HL60 cells assessed as nuclear shrinkage and fragmentation at 1 nM after 12 hrs using rhodamine-phalloidin staining by fluorescence microscopy in presence of Z-VAD-FMK; format: functional, cell-based
HL-60 [6] = experiment: Induction of apoptosis in human HL60 cells assessed as nuclear shrinkage and fragmentation at 1 nM after 12 hrs using rhodamine-phalloidin staining by fluorescence microscopy; format: functional, cell-based
[7] = Cytotoxicity against human HeLaS3 cells after 72 hrs by MTT assay; format: functional, cell-based; conditions: HeLa S3, 72 h
HL-60 [8] = experiment: Induction of apoptosis in human HL60 cells assessed as activation of caspase-3 at 0.1 to 1 nM after 18 hrs by spectrophotometric analysis; format: functional, cell-based
HeLa S3 [9] = experiment: Induction of apoptosis in human HeLaS3 cells assessed as DNA fragmentation after 24 hrs by agarose gel electrophoresis; format: functional, cell-based
HeLa S3 [10] = experiment: Cytotoxicity against human HeLaS3 cells after 48 hrs by trypan blue dye exclusion assay in presence of Z-VAD-FMK; format: functional, cell-based
HL-60 [11] = experiment: Induction of apoptosis in human HL60 cells assessed as DNA fragmentation after 24 hrs by agarose gel electrophoresis; format: functional, cell-based
HL-60 [12] = experiment: Induction of apoptosis in human HL60 cells assessed as disruption and aggregation of actin filaments at 0.1 nM after 12 hrs using rhodamine-phalloidin staining by fluorescence microscopy; format: functional, cell-based
HL-60 [13] = experiment: Induction of apoptosis in human HL60 cells assessed as disruption and aggregation of actin filaments at 1 nM after 12 hrs using rhodamine-phalloidin staining by fluorescence microscopy; format: functional, cell-based
HL-60 [14] = experiment: Cytotoxicity against human HL60 cells after 24 hrs by trypan blue dye exclusion assay; format: functional, cell-based
HL-60 [15] = experiment: Induction of apoptosis in human HL60 cells assessed as activation of caspase-3 at 10 to 30 uM after 18 hrs by spectrophotometric analysis; format: functional, cell-based
HL-60 [16] = experiment: Induction of apoptosis in human HL60 cells assessed as nuclear shrinkage and fragmentation at 30 uM after 12 hrs using rhodamine-phalloidin staining by fluorescence microscopy in presence of Z-VAD-FMK; format: functional, cell-based
HL-60 [17] = experiment: Induction of apoptosis in human HL60 cells assessed as disruption and aggregation of actin filaments at 30 uM after 12 hrs using rhodamine-phalloidin staining by fluorescence microscopy; format: functional, cell-based
HL-60 [18] = experiment: Induction of apoptosis in human HL60 cells assessed as nuclear shrinkage and fragmentation at 30 uM after 12 hrs using rhodamine-phalloidin staining by fluorescence microscopy; format: functional, cell-based

Structure (SMILES)	IC50 (HL-60 [1])	IC50 [2]	Activity (HL-60 [3])	Activity (HeLa S3 [4])	IC50 [7]	Activity (HeLa S3 [9])	Activity (HeLa S3 [10])	Activity (HL-60 [11])	Activity (HL-60 [14])	further results
CC(=O)O[C@@H]([C@@H](C)[C@@H](/C=C/CCc1ccccc1)OC(=O)[C@H](C)N(C)C)[C@H](C)/C=C/N(C)C=O	53 µM	85 µM								
COCC(C(=O)O[C@@H]1C/C=C/C=C/C(=O)O[C@H]([C@@H](C)[C@@H](O)[C@@H](C)CC[C@@H](OC(=O)C(C)N(C)C)[C@H](C)[C@H](OC(C)=O)[C@H](C)/C=C/N(C)C=O)C/C=C/[C@H](OC)C[C@H](C)C/C=C(\C)[C@@H](OC)CC[C@@H](C)[C@@H](O)[C@@H]1C)N(C)C (some centres not stated) [APLYRONINE A]		1.6 µM	inactive	Dose-dependent effect	0.00029 µM	Active	inactive	Active	Dose-dependent effect	Activity (HL-60 [5]): inactive; Activity (HL-60 [6]): Active; Activity (HL-60 [8]): Active; Activity (HL-60 [12]): Active; Activity (HL-60 [13]): Active
CC(=O)O[C@@H]([C@@H](C)[C@@H](/C=C/CCCCc1ccccc1)OC(=O)[C@H](C)N(C)C)[C@H](C)/C=C/N(C)C=O	12.7 µM	21 µM	inactive					Active	Active	Activity (HL-60 [15]): Active; Activity (HL-60 [16]): inactive; Activity (HL-60 [17]): Active; Activity (HL-60 [18]): Active
COC[C@@H](OC)C(=O)O[C@H](CC[C@H](C)[C@@H](C[C@@H]1OC(=O)C[C@@H](O)C/C=C/C(=O)[C@H](C)[C@H](OC)c2coc(n2)-c2coc(n2)-c2coc(n2)/C=C/C[C@H](OC)[C@H]1C)OC)[C@H](C)[C@H](OC(C)=O)[C@H](C)/C=C/N(C)C=O [MYCALOLIDE B]	0.0047 µM	1.7 µM	inactive	Dose-dependent effect	0.052 µM	Active	inactive	Active	Dose-dependent effect	
CC(=O)O[C@@H]([C@@H](C)[C@@H](/C=C/c1ccccc1)OC(=O)[C@H](C)N(C)C)[C@H](C)/C=C/N(C)C=O	27.5 µM	47 µM								
C/C=C/[C@@H](OC(=O)[C@H](C)N(C)C)[C@H](C)[C@H](OC(C)=O)[C@H](C)/C=C/N(C)C=O	240 µM	210 µM								
